In brackets after ≈: the same amount, converted by molar mass. Read-outs that look alike come from different tables or passages of the source.
Experiments:
[1] = cited from earlier work
[2] = compared with aclacinomycin A; European Publication No. 30255; cited from earlier work
[3] = system: RNA synthesis in L1210 cells; assay: RNA synthesis inhibition in cultured L1210 cells (14C-uridine incorporation); type: cell-based, mouse; conditions: for IC50: Mus musculus, 1 h, cultured L1210 cells, 14C-uridine, 60 minutes, 10% calf serum, 37° C., read-out: 50% Inhibition concentration (IC50), RNA synthesis inhibition
Description: (§1) Fifteen minutes after the anthracycline compounds of the present invention were added at varied concentrations, 0.05 μCi/ml (final concentration) of ^14 C-uridine or ^14 C-thymidine was added and cultivated at 37° C. for a further 60 minutes. The incorporation of the radioactive base was stopped by addition of 10% trichloroacetic acid. The acid-insoluble matters were recovered; washed three times with 10-5% trichloroacetic acid; and dissolved in formic acid.

[4] = system: DNA synthesis in L1210 cells; assay: DNA synthesis inhibition in cultured L1210 cells (14C-thymidine incorporation); type: cell-based; conditions: Mus musculus, 1 h, 60 minutes, 10% calf serum, 37° C., read-out: 50% Inhibition concentration (IC50), DNA synthesis inhibition
Description: as §1

L1210 leukemia = assay: Therapeutic effect (survival prolongation) on CDF1 mice bearing L1210 leukemia; type: in vivo, mouse (CDF1 mice); conditions: for Survival prolongation rate (T/C %): L1210-bearing CDF1 mice, i.p. every day for 10 days, control = 100; for survival prolongation effect (in words): mice transplanted with leukemia cells
Description: The therapeutic effect of 2-hydroxyaclacinomycin B was studied on CDF1 mice bearing L1210 leukemia. From 24 hours after 1×10^5 L1210 cells/animal were intraperitoneally transplanted to CDF1 mice, 2-hydroxyaclacinomycin B was intraperitoneally given everyday for 10 days. The prolongation of the survival time was calculated relative to the control animals receiving physiological saline as 100. Table 1 compares the in vitro and in vivo activities and toxicities of 2-hydroxyaclacinomycins A, B, and N and aclacinomycin A.

Mice = assay: Acute toxicity, mice, i.p.
[5] = system: mouse leukemia cells L1210; assay: Growth inhibition of cultured L1210 cells; type: cell-based; conditions: for IC50: Mus musculus; for inhibition of growth and nucleic acid synthesis of L1210 cells (in words): mouse leukemia cells L1210
Description: For determination of the 50% growth inhibition concentration (IC50), 5×10^4 L1210 cells/ml (final concentration) were inoculated into RPMI 1640 medium (Rosewell Park Memorial Institutes 1640 medium) containing 20% calf serum. The anthracycline compounds of the present invention were added to give a final concentrations from 0.01 μg/ml to 0.25 μg/ml, while the control contained no drug. After incubation at 37° C. in a carbon dioxide incubator, the cell counts of the test and control cultures were measured for calculation of the IC50 concentration of antibiotic.

[6] = cultured L1210 cells, RPMI 1640 with 20% calf serum, 37° C., read-out: 50% Inhibition concentration (IC50), growth inhibition

Row | Compound | cardio-toxicity (in words) ([1]; compared with aclacinomycin A, European Publication No. 30255) | antitumor activity (in words) [2] | IC50 [3] [µg/mL] | RNA synthesis versus DNA synthesis inhibition (in words) [3] | IC50 [4] [µg/mL] | Survival prolongation rate (T/C %) (L1210 leukemia; dose 0.63 mg/kg) [%] | Survival prolongation rate (T/C %) (L1210 leukemia; dose 1.25 mg/kg) [%] | Survival prolongation rate (T/C %) (L1210 leukemia; dose 2.5 mg/kg) [%] | Survival prolongation rate (T/C %) (L1210 leukemia; dose 5 mg/kg) [%] | Survival prolongation rate (T/C %) (L1210 leukemia; dose 7.5 mg/kg) [%] | Survival prolongation rate (T/C %) (L1210 leukemia; dose 10 mg/kg) | Survival prolongation rate (T/C %) (L1210 leukemia; dose 12 mg/kg) [%] | survival prolongation effect (in words) (L1210 leukemia) | Toxicity (acute) (Mice) | killing of mouse leukemia cells L1210 (in words) [5] | IC50 [5, 6] [µg/mL] | inhibition of growth and nucleic acid synthesis of L1210 cells (in words) [5] | antitumor activity (in words) (L1210 leukemia; mouse, in vivo) | IC50 ([5]; L1210, read-out: 50% Inhibition concentration (IC50), growth inhibition) [µg/mL] | toxicity and cardio-toxicity among hitherto-developed anthracycline antibiotics (in words) ([1]; compared with hitherto-developed anthracycline antibiotics)
1 | CCC1(O)CC(OC2CC(N(C)C)C(OC3CC(O)C(OC4CCC(=O)C(C)O4)C(C)O3)C(C)O2)c2c(cc3c(c2O)C(=O)c2c(O)cc(O)cc2C3=O)C1C(=O)OC (centres unmarked) [2-Hydroxyaclacinomycin A] | less cardio-toxic, than aclacinomycin A | stronger antitumor activity | 0.14 (≈ 0.169 µM) | inhibit RNA synthesis more specifically than DNA synthesis | 0.85 (≈ 1.03 µM) | 124 | 148 | 176 | 218 | 220 | 158% | 120 | excellent survival prolongation effect | 50.0 | kill mouse leukemia cells L1210 at a low concentration | 0.04 (≈ 0.0483 µM) | markedly inhibit the growth and the nucleic acid synthesis |  |  | 
2 | CCC1(O)CC(OC2CC(N(C)C)C(OC3CC(O)C(OC4CCC(O)C(C)O4)C(C)O3)C(C)O2)c2c(cc3c(c2O)C(=O)c2c(O)cc(O)cc2C3=O)C1C(=O)OC (centres unmarked) [2-Hydroxyaclacinomycin N, 2-hydroxyaclacinomycin N] |  |  | 0.18 (≈ 0.217 µM) | inhibit RNA synthesis more specifically than DNA synthesis | 1.18 (≈ 1.42 µM) | 109 | 128 | 148 | 202 | 219 | 144% | 108 | excellent survival prolongation effect | 45.7 | kill mouse leukemia cells L1210 at a low concentration | 0.04 (≈ 0.0482 µM) | markedly inhibit the growth and the nucleic acid synthesis |  |  | 
3 | CCC1(O)CC(OC2CC(N(C)C)C(OC3CC4OC5CC(=O)C(C)OC5OC4C(C)O3)C(C)O2)c2c(cc3c(c2O)C(=O)c2c(O)cc(O)cc2C3=O)C1C(=O)OC (centres unmarked) [2-Hydroxyaclacinomycin B, 2-hydroxyaclacinomycin B] |  |  | 0.22 (≈ 0.266 µM) | inhibit RNA synthesis more specifically than DNA synthesis | 1 (≈ 1.21 µM) | 110 | 131 | 153 | 200 | 226 | 139% | 113 | excellent survival prolongation effect | 50.0 | kill mouse leukemia cells L1210 at a low concentration |  | markedly inhibit the growth and the nucleic acid synthesis | marked antitumor activity | 0.03 (≈ 0.0363 µM) | 
4 | CCC1(O)CC(OC2CC(N(C)C)C(OC3CC(O)C(OC4CCC(=O)C(C)O4)C(C)O3)C(C)O2)c2c(cc3c(c2O)C(=O)c2c(O)cccc2C3=O)C1C(=O)OC (centres unmarked) [Aclacinomycin A, reference compound] |  |  | 0.04 (≈ 0.0493 µM) |  | 0.3 (≈ 0.37 µM) | 107 | 125 | 186 | 196 | 123 | Toxic |  |  | 22.6 |  | 0.01 (≈ 0.0123 µM) |  |  |  | the least toxic and cardio-toxic among the hitherto-developed anthracycline antibiotics
